Data on ten molecules can be found in US9062066B2, “Anti-inflammatory compound having inhibitory activity against multiple tyrosine kinases and pharmaceutical composition containing same” (KOREA INSTITUTE OF SCIENCE AND TECHNOLOGY, priority 2010, dated 2015).

Molecules are shown by their SMILES. Where two headings read alike, the source gives them in different places.

The target of one assay is DDR1 tyrosine kinase (Homo sapiens (Human), UniProt Q08345). Kind of assay: in vitro DDR1 tyrosine kinase inhibition (GST-fused kinase domain). The format is biochemical. Particulars: 1 uM compound; read-out: % inhibition against DDR1.
The target in the next assay is Lyn tyrosine kinase (Homo sapiens (Human), UniProt P07948). Kind of assay: in vitro Lyn tyrosine kinase inhibition. Particulars: 1 uM compound; read-out: % inhibition against Lyn. In kind it is biochemical.
The test system of assay [1] is NO synthesis in J744A.1 macrophage. Kind of assay: inhibition of nitric oxide (NO) synthesis in LPS-activated macrophages (Griess reagent). The format is cell-based. Particulars: read-out: Inhibition (%) of NO synthesis. (In general: Griess reagent forms a coloured azo dye with nitrite.)
The next assay has as its system mouse skin fibroblast. Nature of the assay: inhibition of migration of activated fibroblast (scratch wound). In kind it is cell-based. Particulars: 0.5 uM compound, 10 ng/ml TGF-β1, 24 hours, read-out: Inhibition (%) of migration of activated fibroblast. In short, it runs like this:
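Scratch wound was made on a fibroblast monolayer, then cells were kept in DMEM with 10 ng/ml TGF-β1 at 37° C for 24 hours. After formalin fixation and crystal violet staining, cells that had moved into the wound were counted at 100× in five random fields and averaged.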

Assay [2] deals with oxazolone-induced skin inflammation of Balb/C mouse ears. Nature of the assay: mouse skin inflammatory model induced by oxazolone (ear thickness). In kind it is in vivo. The note with it: 20 ul of 0.1% compound topical on ear, 36 hours after oxazolone. In short, it runs like this: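 Oxazolone was used to induce skin inflammation in the ears of 8-week-old Balb/C mice. Ear thickness was measured by caliper before induction, again at 36 h to capture inflammatory swelling, and averaged per group (n=4).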

The target in the next assay is DDR2 tyrosine kinase (Homo sapiens (Human), UniProt Q16832). Nature of the assay: in vitro DDR2 tyrosine kinase inhibition (GST-fused kinase domain). In kind it is biochemical. Particulars: 1 uM compound; read-out: % inhibition against DDR2.
Assay [3] deals with α-smooth muscle actin protein expression in skin fibroblast cells. Kind of assay: inhibition of α-smooth muscle actin expression in fibroblast activated by type I collagen and TGF-β1 (western blotting). In kind it is cell-based, Balb/C mouse. The note with it: Mus musculus, 0.5 uM compound, 10 ng/ml TGF-β1, 48 hours, type I collagen, read-out: Inhibition (%) of α-smooth muscle actin increase. The procedure, abridged: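 α-Smooth muscle actin protein was detected by western blotting with chemiluminescence on X-ray film. Levels were quantified by densitometry of the band.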
(In western blotting, separated proteins are transferred to a membrane and probed.)

The target of a further assay is c-Src tyrosine kinase (Homo sapiens (Human), UniProt P12931). Nature of the assay: in vitro c-Src tyrosine kinase inhibition (32P-ATP, poly(D4Y)n substrate). In kind it is biochemical. The note with it: 1 uM compound; read-out: % inhibition against c-Src.
In assay [4] the test system is TNF-α synthesis in J744A.1 macrophages. Nature of the assay: inhibition of TNF-α synthesis in LPS-activated macrophages (ELISA). The note with it: Macrophage, read-out: Inhibition (%) of TNF-α synthesis. The format is cell-based. (In general: An ELISA detects its analyte on a solid surface through an enzyme-linked reagent.)
Another assay addresses Fgr tyrosine kinase (Homo sapiens (Human), UniProt P09769). Nature of the assay: in vitro Fgr tyrosine kinase inhibition. The format is biochemical. The note with it: 1 uM compound; read-out: % inhibition against Fgr.
The next assay concerns the target Hck tyrosine kinase (Homo sapiens (Human), UniProt P08631). Nature of the assay: in vitro Hck tyrosine kinase inhibition. The note with it: 1 uM compound; read-out: % inhibition against Hck. In kind it is biochemical.
Setting [5] is: 10 μM compound, 100 ng/ml LPS, 6 hours.

DDR1 tyrosine kinase, sequence (Q08345 610-905): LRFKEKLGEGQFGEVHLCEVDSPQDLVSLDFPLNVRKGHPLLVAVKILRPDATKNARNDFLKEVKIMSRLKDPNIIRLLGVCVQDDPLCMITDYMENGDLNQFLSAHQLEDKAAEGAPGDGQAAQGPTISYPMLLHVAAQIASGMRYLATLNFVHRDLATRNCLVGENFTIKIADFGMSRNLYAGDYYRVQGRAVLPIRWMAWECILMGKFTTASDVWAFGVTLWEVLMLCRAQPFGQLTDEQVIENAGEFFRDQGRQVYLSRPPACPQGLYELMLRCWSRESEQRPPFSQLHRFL
Fgr tyrosine kinase, sequence (P09769 whole entry): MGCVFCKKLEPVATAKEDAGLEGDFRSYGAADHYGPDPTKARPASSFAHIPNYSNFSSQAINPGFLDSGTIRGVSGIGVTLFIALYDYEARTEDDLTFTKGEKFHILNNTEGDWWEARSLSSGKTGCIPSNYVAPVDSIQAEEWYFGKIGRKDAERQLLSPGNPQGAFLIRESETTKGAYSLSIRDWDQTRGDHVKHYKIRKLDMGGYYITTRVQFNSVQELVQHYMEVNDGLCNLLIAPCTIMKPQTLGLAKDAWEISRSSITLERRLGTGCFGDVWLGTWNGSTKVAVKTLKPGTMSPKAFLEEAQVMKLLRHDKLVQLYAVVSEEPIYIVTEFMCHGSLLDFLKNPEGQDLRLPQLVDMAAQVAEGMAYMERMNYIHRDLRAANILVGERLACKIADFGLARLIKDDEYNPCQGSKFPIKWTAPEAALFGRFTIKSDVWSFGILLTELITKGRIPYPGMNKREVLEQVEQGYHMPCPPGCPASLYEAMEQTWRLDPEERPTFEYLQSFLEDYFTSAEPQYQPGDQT
DDR2 tyrosine kinase, sequence (Q16832 563-849): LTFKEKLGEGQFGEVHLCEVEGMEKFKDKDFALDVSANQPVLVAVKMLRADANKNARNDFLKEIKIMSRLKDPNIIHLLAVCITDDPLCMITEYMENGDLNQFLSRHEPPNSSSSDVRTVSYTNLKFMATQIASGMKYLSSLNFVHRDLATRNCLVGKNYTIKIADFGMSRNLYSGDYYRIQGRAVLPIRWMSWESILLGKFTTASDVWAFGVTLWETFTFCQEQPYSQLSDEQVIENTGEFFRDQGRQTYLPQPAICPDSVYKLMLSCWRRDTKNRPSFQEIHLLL
c-Src tyrosine kinase, sequence (P12931 whole entry, looked up): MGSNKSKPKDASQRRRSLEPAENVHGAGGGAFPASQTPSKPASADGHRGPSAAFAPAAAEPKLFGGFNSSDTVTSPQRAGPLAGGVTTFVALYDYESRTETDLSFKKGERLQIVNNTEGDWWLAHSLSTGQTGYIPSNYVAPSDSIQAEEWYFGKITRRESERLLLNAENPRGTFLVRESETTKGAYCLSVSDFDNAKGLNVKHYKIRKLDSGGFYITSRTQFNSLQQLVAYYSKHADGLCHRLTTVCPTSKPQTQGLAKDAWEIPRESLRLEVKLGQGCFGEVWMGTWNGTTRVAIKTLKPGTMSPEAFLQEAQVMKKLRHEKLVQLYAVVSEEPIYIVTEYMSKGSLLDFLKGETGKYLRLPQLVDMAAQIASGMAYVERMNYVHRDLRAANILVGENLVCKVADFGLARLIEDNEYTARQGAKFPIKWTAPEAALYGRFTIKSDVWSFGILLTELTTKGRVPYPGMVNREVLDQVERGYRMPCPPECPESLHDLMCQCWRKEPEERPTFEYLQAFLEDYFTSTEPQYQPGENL
Hck tyrosine kinase, sequence (P08631 whole entry): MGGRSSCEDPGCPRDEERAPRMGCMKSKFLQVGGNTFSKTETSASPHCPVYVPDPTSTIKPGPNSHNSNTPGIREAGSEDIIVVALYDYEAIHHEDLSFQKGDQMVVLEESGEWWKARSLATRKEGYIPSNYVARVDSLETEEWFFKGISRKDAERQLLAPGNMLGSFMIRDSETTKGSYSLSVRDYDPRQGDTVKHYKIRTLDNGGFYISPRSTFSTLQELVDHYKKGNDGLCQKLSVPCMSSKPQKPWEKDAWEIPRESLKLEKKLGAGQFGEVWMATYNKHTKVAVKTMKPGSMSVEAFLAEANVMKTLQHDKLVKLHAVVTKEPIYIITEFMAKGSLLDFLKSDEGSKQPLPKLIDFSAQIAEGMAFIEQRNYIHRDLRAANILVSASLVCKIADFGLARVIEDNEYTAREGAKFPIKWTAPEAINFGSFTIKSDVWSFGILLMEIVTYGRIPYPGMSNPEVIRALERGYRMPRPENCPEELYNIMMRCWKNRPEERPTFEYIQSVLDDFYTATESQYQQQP
Lyn tyrosine kinase, sequence (P07948 whole entry): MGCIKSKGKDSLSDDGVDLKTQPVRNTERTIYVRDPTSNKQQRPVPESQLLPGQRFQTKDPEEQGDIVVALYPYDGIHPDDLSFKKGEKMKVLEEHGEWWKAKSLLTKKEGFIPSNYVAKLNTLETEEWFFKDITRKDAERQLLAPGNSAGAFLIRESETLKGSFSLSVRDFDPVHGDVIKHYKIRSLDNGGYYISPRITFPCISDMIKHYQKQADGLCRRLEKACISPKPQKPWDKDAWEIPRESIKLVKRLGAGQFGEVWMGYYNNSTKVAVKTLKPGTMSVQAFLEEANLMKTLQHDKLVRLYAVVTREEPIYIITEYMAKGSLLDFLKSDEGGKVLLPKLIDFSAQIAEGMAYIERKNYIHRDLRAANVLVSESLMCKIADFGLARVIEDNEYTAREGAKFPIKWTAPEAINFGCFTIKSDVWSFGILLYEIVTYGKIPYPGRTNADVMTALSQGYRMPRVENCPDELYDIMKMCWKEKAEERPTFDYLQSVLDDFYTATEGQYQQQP

With `Oc1cccc(Nc2ccnc3cc(-c4ccc(CN5CCCC5)cc4)sc23)c1` [LCB 03-0080, 3-(2-(4-(pyrrolidin-1-ylmethyl)phenyl)thieno[3,2-b]pyridin-7-ylamino)phenol], the inhibition at 1 µM at DDR1 tyrosine kinase was > 80%; at Lyn tyrosine kinase, > 60%; at DDR2 tyrosine kinase, > 80%; at c-Src tyrosine kinase it was > 60%; on Fgr tyrosine kinase, > 60%; on Hck tyrosine kinase, > 60%. In addition, the inhibition at 10 µM came to 78% in assay [1] (24 h) and 59% in [4] (6 h). Further, the inhibition at 0.5 µM is 41% in the assay on mouse skin fibroblast and 62% in assay [3]. The “Inhibition (%) of increase of ear thickness” value in assay [2] is listed as 53%.
`Oc1cccc(Nc2ccnc3cc(-c4ccc(CN5CCOCC5)cc4)sc23)c1` [LCB 03-0083, 3-(2-(4-(morpholinomethyl)phenyl)thieno[3,2-b]pyridin-7-ylamino)phenol]: the inhibition at 1 µM at DDR1 tyrosine kinase is > 80%; on Lyn tyrosine kinase it was > 60%; at DDR2 tyrosine kinase it was > 80%; on c-Src tyrosine kinase, > 60%; at Fgr tyrosine kinase it was > 60%; at Hck tyrosine kinase it was > 60%. The inhibition at 10 µM turned out to be 71% in assay [1] (10 μM compound, LPS, 24 hours) and 62% in [4] (setting [5]). Moreover, the figures for the inhibition at 0.5 µM (in the assay on mouse skin fibroblast; in [3]) were 33% and 55%, respectively. Moreover, the “Inhibition (%) of increase of ear thickness” value in assay [2] is listed as 47%.
`CN1CCN(Cc2ccc(-c3cc4nccc(Nc5cccc(O)c5)c4s3)cc2)CC1` [LCB 03-0084, 3-(2-(4-((4-methylpiperazin-1-yl)methyl)phenyl)thieno[3,2-b]pyridin-7-ylamino)phenol]: the inhibition at 1 µM at DDR1 tyrosine kinase is > 80%; on Lyn tyrosine kinase it was > 60%; on DDR2 tyrosine kinase, > 80%; on c-Src tyrosine kinase it was > 60%; on Fgr tyrosine kinase, > 60%; on Hck tyrosine kinase, > 60%. In addition, the inhibition at 10 µM in [1] (10 μM compound, LPS, 24 hours) is 85%; in assay [4] (setting [5]), 64%. The inhibition at 0.5 µM worked out at 36% with mouse skin fibroblast and 57% in assay [3]. In [2], the “Inhibition (%) of increase of ear thickness” value worked out at 49%.
In the case of `Oc1cccc(Nc2ncnc3cc(-c4ccc(CN5CCCC5)s4)sc23)c1` [LCB 03-0085, 3-(6-(5-(pyrrolidin-1-ylmethyl)thiophene-2-yl)thieno[3,2-d]pyrimidin-4-ylamino)phenol], the inhibition at 1 µM on DDR1 tyrosine kinase was > 80%; at Lyn tyrosine kinase, > 70%; on DDR2 tyrosine kinase it was > 80%; on c-Src tyrosine kinase it was > 70%; at Fgr tyrosine kinase it was > 70%; on Hck tyrosine kinase, > 70%. Further, the inhibition at 10 µM in [1] (24 h) came out at 93%; in [4] (6 h), 74%. The results for the inhibition at 0.5 µM (in the assay with mouse skin fibroblast; in [3]) were 35% and 51%, respectively. In addition, in assay [2], the “Inhibition (%) of increase of ear thickness” value is 53%.
Consider `Oc1cccc(Nc2ncnc3cc(-c4ccc(CN5CCCC5)o4)sc23)c1` [LCB 03-0086, 3-(6-(5-(pyrrolidin-1-ylmethyl)furan-2-yl)thieno[3,2-d]pyrimidin-4-ylamino)phenol], for which the inhibition at 1 µM was > 80% at DDR1 tyrosine kinase; > 70% on Lyn tyrosine kinase; > 80% on DDR2 tyrosine kinase; > 70% on c-Src tyrosine kinase; > 70% at Fgr tyrosine kinase; > 70% at Hck tyrosine kinase. For the same molecule, the inhibition at 10 µM in assay [1] (24 h) was 72%; in [4] (6 h), 68%. The inhibition at 0.5 µM stood at 21% in the assay with mouse skin fibroblast and 33% in assay [3]. Besides, the “Inhibition (%) of increase of ear thickness” value in assay [2] was 48%.
As for `CN1CCN(Cc2ccc(-c3cc4ncnc(Nc5cccc(O)c5)c4s3)o2)CC1` [LCB 03-0087, 3-(6-(5-((4-methylpiperazin-1-yl)methyl)furan-2-yl)thieno[3,2-d]pyrimidin-4-ylamino)phenol], the inhibition at 1 µM at DDR1 tyrosine kinase, on Lyn tyrosine kinase, at DDR2 tyrosine kinase, at c-Src tyrosine kinase, on Fgr tyrosine kinase and on Hck tyrosine kinase was > 70% each time. Further, the inhibition at 10 µM in assay [1] (24 h) worked out at 83%; in assay [4] (6 h), 68%. In addition, the figures for the inhibition at 0.5 µM (in the assay with mouse skin fibroblast; in assay [3]) were 24% and 29%, respectively. For the same molecule, the “Inhibition (%) of increase of ear thickness” value in assay [2] is 43%.
As to `Oc1cccc(Nc2ncnc3cc(-c4ccc(CN5CCCCC5)o4)sc23)c1` [LCB 03-0088, 3-(6-(5-(piperidin-1-ylmethyl)furan-2-yl)thieno[3,2-d]pyrimidin-4-ylamino)phenol], the inhibition at 1 µM at DDR1 tyrosine kinase was > 90%; on Lyn tyrosine kinase, > 70%; on DDR2 tyrosine kinase, > 90%; at c-Src tyrosine kinase, > 70%; on Fgr tyrosine kinase, > 70%; on Hck tyrosine kinase, > 70%. In addition, the inhibition at 10 µM in [1] (24 h) turned out to be 97%; in assay [4] (6 h), 73%. Moreover, the inhibition at 0.5 µM is 27% with mouse skin fibroblast and 52% in [3]. In addition, the “Inhibition (%) of increase of ear thickness” value in assay [2] is on record as 51%.
As for `Oc1cccc(Nc2ncnc3cc(-c4ccc(CN5CCOCC5)o4)sc23)c1` [LCB 03-0089, 3-(6-(5-(morpholinomethyl)furan-2-yl)thieno[3,2-d]pyrimidin-4-ylamino)phenol], the inhibition at 1 µM on DDR1 tyrosine kinase, on Lyn tyrosine kinase, at DDR2 tyrosine kinase, at c-Src tyrosine kinase, at Fgr tyrosine kinase and at Hck tyrosine kinase was > 70% in each case. For the same molecule, the inhibition at 10 µM in assay [1] (24 h) is 86%; in assay [4] (6 h) it was 71%. Moreover, the inhibition at 0.5 µM with mouse skin fibroblast stood at 19%; in [3], 25%. Moreover, in assay [2], the “Inhibition (%) of increase of ear thickness” value amounted to 59%.
As to `Oc1cccc(Nc2ncnc3cc(-c4ccc(CN5CCNCC5)o4)sc23)c1` [LCB 03-0090, 3-(6-(5-(piperazin-1-ylmethyl)furan-2-yl)thieno[3,2-d]pyrimidin-4-ylamino)phenol], the inhibition at 1 µM on DDR1 tyrosine kinase, on Lyn tyrosine kinase, at DDR2 tyrosine kinase, on c-Src tyrosine kinase, on Fgr tyrosine kinase and on Hck tyrosine kinase was > 70% throughout. For the same molecule, the figures for the inhibition at 10 µM in [1] (24 h) and in [4] (6 h) were 90% and 63%, respectively. In addition, the results for the inhibition at 0.5 µM (with mouse skin fibroblast; in [3]) were 26% and 44%, respectively. The “Inhibition (%) of increase of ear thickness” value in assay [2] is 56%.
With `CCNCc1ccc(-c2cc3ncnc(Nc4cccc(O)c4)c3s2)o1` [LCB 03-0091, 3-(6-(5-((ethylamino)methyl)furan-2-yl)thieno[3,2-d]pyrimidin-4-ylamino)phenol], the inhibition at 1 µM at DDR1 tyrosine kinase, on Lyn tyrosine kinase, at DDR2 tyrosine kinase, at c-Src tyrosine kinase, at Fgr tyrosine kinase and on Hck tyrosine kinase was > 70% each time. The inhibition at 10 µM in assay [1] (24 h) was 92%; in assay [4] (6 h) it was 68%. Further, the inhibition at 0.5 µM (with mouse skin fibroblast; in assay [3]) was 39% in each case. Also, the “Inhibition (%) of increase of ear thickness” value in assay [2] is reported as 49%.
